We go through four compounds from ChEMBL document CHEMBL1201862, “PubChem BioAssay data set” (2004).

The source made the active and inactive calls.

Data set [1] deals with SUMO E1/E2 (Homo sapiens, UniProt P63279+Q9UBE0+Q9UBT2). The data set can be described thus: SAR analysis of SUMOylation using HTRF in an in-Vitro dose response assay. [Related pubchem assays (depositor defined):AID2006, AID2011, AID2018, AID2069, AID2658]. In kind it is functional.
Data set [2] addresses T1, Voltage-gated N-type calcium channel alpha-1B subunit/Amyloid beta A4 precursor protein-binding family A member 1 (Homo sapiens, UniProt Q00975+Q02410). The data set can be described thus: disruptors of Mint-PDZ/N-type channel peptide interaction – biochemical, HTRF, set 2, SAR follow-up (AID 434980). The format is functional. A general note: In TR-FRET formats the signal depends on donor and acceptor labels being close together.

In data set [3] the target is T1, Voltage-gated N-type calcium channel alpha-1B subunit/Amyloid beta A4 precursor protein-binding family A member 1. The data set can be described thus: disruptors of Mint-PDZ/N-type channel peptide interaction – biochemical, HTRF, SAR follow-up (AID 2489). The format is functional.
For data set [4], the target named is Potassium voltage-gated channel subfamily KQT member 2 (Rattus norvegicus, UniProt O88943). Briefly: KCNQ2 channel activators, analog series, SAR follow-up, automated patch clamp, KCNQ2-CHO cells (AID 493113). The format is functional. A general note: Patch clamp records ionic current or voltage across a cell membrane.
Data set [5] has as its target Intestinal-type alkaline phosphatase (Mus musculus, UniProt P24822). Briefly: PubChem AID 488875. The format is functional.
Data set [6] has as its target T2, Intestinal-type alkaline phosphatase (Homo sapiens, UniProt P09923). The data set can be described thus: human intestinal alkaline phosphatase activators, dose response, biochemical, luminescence, uHTS hits (AID 463120). In kind it is functional.
The target of data set [7] is T2, Intestinal-type alkaline phosphatase. The data set can be described thus: human IAP activators, dose response, biochemical, luminescent, uHTS hits, set 2 (AID 488817).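 Further: potency of activators that raise enzyme activity.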 The format is functional.
The target in data set [8] is T3, Alkaline phosphatase, tissue-nonspecific isozyme (Homo sapiens, UniProt P05186).
T3 sequence (P05186 whole entry): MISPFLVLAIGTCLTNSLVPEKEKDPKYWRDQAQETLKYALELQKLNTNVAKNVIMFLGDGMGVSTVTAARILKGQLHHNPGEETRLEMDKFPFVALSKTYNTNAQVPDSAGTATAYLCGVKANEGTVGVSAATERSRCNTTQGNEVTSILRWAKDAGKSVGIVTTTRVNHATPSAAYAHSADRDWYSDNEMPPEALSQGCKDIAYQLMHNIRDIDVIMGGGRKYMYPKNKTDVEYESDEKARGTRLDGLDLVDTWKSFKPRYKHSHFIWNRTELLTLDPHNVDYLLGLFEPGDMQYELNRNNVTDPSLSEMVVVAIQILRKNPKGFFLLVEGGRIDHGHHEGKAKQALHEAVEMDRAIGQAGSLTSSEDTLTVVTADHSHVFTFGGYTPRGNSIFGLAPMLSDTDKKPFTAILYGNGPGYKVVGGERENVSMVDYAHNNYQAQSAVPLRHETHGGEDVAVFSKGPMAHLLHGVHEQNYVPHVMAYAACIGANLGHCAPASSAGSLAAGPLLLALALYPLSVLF
The data set can be described thus: TNAP enzyme activators, dose response, selectivity assay for human IAP activator project, biochemical, TNAP isozyme, human IAP uHTS hits (AID 488886).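 Further: potency of compounds raising TNAP activity as a selectivity check on IAP activators.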 In kind it is functional.

Data set [9] has as its system INS1. The data set can be described thus: beta cell apoptosis inhibitors, cytokine rescue, dose response, luminescence, retest (AID 449756).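 Further: cell death triggered by IL-1 beta plus TNF-alpha plus IFN-gamma mixture; protective hits raise ATP signal compared with cytokine alone wells.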 The format is functional, cell-based. Particulars: Rattus norvegicus.
Data set [10] addresses T4, Cytochrome P450 1A2 (Homo sapiens, UniProt P05177).
T4 sequence (P05177 whole entry): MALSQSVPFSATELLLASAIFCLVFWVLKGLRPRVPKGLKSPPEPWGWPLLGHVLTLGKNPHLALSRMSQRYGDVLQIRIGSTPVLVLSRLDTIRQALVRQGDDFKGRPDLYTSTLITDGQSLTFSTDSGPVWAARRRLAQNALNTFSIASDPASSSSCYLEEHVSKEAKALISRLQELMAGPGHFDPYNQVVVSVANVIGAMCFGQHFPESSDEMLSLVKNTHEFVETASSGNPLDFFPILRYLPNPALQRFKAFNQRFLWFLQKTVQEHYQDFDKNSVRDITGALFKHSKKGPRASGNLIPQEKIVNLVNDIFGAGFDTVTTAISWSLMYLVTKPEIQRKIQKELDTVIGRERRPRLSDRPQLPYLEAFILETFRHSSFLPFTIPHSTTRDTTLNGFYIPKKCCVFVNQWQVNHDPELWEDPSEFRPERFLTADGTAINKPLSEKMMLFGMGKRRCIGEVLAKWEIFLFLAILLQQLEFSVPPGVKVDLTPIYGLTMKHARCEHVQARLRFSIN

T2 sequence (P09923 whole entry): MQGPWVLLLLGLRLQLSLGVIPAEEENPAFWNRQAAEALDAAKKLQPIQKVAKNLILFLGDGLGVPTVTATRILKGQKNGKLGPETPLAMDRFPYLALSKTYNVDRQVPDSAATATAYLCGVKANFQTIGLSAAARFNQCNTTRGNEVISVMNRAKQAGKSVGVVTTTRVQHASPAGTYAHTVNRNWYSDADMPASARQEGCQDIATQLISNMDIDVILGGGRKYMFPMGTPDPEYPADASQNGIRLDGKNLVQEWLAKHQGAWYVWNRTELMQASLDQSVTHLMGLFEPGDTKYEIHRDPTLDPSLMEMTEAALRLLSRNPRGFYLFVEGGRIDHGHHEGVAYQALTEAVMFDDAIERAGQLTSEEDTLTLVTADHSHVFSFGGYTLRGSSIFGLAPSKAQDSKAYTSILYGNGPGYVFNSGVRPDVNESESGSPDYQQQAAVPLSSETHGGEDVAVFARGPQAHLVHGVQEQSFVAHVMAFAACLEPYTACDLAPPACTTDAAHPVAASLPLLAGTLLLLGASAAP
T1 sequence (Q00975 whole entry): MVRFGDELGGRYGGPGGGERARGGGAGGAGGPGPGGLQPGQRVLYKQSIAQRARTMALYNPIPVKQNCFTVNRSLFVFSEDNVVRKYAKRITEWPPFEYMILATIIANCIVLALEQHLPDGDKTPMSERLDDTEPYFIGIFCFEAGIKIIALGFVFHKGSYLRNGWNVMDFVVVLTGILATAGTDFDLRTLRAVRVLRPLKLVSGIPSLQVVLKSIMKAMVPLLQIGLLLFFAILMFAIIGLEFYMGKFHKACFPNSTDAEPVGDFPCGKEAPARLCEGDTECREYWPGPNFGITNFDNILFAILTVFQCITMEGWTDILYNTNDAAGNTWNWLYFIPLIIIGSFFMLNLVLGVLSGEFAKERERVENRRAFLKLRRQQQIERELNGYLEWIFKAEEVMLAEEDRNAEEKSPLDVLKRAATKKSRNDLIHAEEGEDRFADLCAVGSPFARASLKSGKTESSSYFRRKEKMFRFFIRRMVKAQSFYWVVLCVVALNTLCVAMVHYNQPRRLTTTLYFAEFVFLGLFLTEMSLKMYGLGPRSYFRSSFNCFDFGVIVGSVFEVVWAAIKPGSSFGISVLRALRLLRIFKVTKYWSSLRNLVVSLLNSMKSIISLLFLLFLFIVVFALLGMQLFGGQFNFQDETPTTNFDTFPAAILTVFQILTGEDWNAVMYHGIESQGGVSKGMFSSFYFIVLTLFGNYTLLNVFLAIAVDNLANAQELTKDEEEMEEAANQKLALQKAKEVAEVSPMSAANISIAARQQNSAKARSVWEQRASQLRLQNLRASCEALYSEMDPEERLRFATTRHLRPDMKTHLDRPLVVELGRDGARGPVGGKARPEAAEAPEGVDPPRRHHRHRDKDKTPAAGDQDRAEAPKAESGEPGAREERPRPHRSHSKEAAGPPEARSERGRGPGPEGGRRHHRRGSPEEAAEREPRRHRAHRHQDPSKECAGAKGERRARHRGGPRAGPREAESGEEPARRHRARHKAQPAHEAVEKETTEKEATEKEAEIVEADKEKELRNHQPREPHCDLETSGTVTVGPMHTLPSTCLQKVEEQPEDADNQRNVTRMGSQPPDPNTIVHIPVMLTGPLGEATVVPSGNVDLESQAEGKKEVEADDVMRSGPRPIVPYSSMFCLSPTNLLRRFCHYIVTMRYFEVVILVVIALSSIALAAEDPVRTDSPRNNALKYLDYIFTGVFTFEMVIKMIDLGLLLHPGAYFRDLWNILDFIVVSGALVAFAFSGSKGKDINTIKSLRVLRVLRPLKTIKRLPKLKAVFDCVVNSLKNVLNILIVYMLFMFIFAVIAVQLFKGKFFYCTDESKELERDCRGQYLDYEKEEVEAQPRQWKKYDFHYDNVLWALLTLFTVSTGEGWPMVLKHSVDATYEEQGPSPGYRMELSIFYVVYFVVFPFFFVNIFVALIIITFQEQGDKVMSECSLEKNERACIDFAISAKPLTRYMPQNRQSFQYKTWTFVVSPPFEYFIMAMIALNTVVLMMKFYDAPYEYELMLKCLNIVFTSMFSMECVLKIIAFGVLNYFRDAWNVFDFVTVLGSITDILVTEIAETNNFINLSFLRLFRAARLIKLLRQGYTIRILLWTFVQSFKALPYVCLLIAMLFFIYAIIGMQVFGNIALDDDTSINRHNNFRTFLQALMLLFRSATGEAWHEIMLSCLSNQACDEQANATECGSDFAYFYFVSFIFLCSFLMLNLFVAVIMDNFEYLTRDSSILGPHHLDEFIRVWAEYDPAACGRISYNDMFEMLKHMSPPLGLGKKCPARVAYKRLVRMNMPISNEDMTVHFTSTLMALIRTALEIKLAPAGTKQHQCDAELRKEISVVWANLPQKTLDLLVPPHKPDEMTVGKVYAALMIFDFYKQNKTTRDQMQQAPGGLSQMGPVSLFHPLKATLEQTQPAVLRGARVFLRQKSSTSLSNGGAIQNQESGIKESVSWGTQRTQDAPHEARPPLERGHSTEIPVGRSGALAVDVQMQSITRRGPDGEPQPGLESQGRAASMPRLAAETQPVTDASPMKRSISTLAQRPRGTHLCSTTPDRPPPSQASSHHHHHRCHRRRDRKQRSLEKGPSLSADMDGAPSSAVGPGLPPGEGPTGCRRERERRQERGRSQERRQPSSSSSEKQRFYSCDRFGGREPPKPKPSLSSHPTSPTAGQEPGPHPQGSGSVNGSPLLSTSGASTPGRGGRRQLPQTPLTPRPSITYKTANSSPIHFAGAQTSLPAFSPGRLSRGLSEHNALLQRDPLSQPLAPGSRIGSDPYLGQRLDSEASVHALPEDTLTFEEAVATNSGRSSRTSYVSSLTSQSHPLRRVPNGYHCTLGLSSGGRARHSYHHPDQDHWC
T1 sequence (Q02410 whole entry): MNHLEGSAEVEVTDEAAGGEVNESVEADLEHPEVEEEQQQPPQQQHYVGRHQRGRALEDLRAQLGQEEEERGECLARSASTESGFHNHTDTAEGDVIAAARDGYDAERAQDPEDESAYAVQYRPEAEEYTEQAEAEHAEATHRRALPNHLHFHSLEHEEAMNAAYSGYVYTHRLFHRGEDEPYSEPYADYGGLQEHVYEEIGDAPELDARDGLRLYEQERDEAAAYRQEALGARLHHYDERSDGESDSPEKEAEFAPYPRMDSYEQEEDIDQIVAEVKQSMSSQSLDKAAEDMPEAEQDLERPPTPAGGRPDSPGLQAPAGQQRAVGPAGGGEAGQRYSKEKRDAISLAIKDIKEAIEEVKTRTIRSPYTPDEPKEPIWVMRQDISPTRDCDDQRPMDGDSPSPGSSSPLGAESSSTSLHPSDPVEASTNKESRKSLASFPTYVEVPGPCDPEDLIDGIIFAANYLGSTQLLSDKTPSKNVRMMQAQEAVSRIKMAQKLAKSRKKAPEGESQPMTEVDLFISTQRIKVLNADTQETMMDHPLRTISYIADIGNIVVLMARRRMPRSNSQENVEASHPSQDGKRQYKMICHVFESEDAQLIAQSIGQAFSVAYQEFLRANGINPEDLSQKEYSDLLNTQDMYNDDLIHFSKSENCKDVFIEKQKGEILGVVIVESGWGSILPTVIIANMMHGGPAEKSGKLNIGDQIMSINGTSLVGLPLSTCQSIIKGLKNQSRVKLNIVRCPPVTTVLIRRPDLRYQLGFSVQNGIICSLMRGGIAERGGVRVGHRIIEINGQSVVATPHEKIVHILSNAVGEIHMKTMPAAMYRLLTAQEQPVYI
Sequence of Intestinal-type alkaline phosphatase (Mus musculus, UniProt P24822) (P24822 whole entry): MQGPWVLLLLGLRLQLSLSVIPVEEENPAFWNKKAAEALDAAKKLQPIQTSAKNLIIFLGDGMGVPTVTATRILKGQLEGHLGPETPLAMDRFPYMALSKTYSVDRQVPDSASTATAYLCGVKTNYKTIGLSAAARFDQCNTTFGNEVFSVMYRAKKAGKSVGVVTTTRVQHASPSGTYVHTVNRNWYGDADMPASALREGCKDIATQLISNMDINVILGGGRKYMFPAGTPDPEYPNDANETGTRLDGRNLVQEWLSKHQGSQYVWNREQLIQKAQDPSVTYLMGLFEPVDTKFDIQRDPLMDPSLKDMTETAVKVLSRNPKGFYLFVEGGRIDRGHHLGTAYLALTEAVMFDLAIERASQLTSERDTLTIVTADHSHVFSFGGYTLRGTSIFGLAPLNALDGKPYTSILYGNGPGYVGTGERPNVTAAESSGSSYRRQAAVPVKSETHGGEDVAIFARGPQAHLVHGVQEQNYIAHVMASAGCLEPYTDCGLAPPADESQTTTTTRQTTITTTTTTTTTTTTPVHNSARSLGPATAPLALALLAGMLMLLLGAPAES
Sequence of Potassium voltage-gated channel subfamily KQT member 2 (O88943 whole entry): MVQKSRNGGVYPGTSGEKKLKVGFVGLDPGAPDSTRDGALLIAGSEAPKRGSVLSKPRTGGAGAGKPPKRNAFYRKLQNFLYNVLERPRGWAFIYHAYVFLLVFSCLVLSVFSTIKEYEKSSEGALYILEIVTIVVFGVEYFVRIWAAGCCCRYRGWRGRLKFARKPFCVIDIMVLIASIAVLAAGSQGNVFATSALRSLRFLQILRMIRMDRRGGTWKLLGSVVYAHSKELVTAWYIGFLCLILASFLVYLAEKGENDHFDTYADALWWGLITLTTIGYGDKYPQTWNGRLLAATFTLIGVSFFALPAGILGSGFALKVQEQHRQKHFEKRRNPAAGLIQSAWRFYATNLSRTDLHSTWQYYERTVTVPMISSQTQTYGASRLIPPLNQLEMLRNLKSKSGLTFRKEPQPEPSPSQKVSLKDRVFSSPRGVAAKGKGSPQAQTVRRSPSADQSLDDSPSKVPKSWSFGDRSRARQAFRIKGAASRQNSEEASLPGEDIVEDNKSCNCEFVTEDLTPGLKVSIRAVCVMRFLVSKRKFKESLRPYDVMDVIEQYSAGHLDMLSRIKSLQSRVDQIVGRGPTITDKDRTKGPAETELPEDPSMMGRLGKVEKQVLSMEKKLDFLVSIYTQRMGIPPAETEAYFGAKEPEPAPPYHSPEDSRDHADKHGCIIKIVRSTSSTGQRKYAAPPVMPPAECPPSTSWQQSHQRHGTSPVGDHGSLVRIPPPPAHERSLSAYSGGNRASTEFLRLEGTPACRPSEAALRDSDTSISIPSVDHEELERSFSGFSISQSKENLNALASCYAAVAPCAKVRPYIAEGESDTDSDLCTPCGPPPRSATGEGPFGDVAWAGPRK

What is called IC50 is the concentration needed to halve the response being measured. Consider `COc1ccc(CNC(=O)COC(=O)c2cc(-c3ccco3)nc3ccccc23)cc1OC`, for which the IC50 in data set [1] was 6.04 µM (active); in [2] it was 5.49 µM (active); in [3], > 56.8 µM (inactive).

Broadly, the EC50 is the concentration that produces a half-maximal response. Regarding `O=C(Nc1ccc2ccccc2c1)C1CC2CCC1C2` (stereo not given), the EC50 in data set [4] is 0.6 µM (active).

Broadly, the AC50 is the midpoint of the concentration-response curve, whichever way the signal moves. Turning to `Cc1ccc(O)c(/C=N/NC(=O)c2[nH]ncc2Br)c1`, the EC50 in data set [5] is > 100 µM (inactive); in data set [6], 7.61 µM (active); in data set [7] it was 47.6 µM (active); in data set [8], 49.6 µM (active). The AC50 in data set [9] is 33.5 µM (active).

Regarding `C[C@@H]1COc2c(N3CCN(C)CC3)c(F)cc3c(=O)c(C(=O)O)cn1c23` [DEXTROFLOXACINE], the AC50 entry in data set [10] is “inactive”.
